Measurements taken from patent US20260262643A1, “HERBICIDAL BENZOXAZINES” (FMC CORPORATION, priority 2022, published 2026).

Assays:
barnyardgrass [1] = experiment: Test C preemergence; assay type: in vivo, Echinochloa crusgalli
Method in brief: (§1)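 Greenhouse herbicide screen, 10-day duration. Test chemicals in solvent/surfactant blend were sprayed onto soil at sowing (pre) or onto 2–10 cm seedlings at one to two leaves (post); injury scored visually against controls, 0 no effect to 100 complete control.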

blackgrass [2] = experiment: Test C preemergence; assay type: in vivo, Alopecurus myosuroides
Method in brief: as §1

corn [3] = experiment: Test C preemergence; assay type: in vivo, Zea mays
Method in brief: as §1

foxtail, giant [4] = experiment: Test C preemergence; assay type: in vivo, Setaria faberi
Method in brief: as §1

kochia [5] = experiment: Test C preemergence; assay type: in vivo, Bassia scoparia
Method in brief: as §1

oat, wild [6] = experiment: Test C preemergence; assay type: in vivo, Avena fatua
Method in brief: as §1

pigweed, palmer [7] = experiment: Test C preemergence; assay type: in vivo, Amaranthus palmeri
Method in brief: as §1

ragweed [8] = experiment: Test C preemergence; assay type: in vivo, Ambrosia artemisiifolia
Method in brief: as §1

ryegrass, Italian [9] = experiment: Test C preemergence; assay type: in vivo, Lolium multiflorum
Method in brief: as §1

soybean [10] = experiment: Test C preemergence; assay type: in vivo, Glycine max
Method in brief: as §1

wheat [11] = experiment: Test C preemergence; assay type: in vivo, Triticum aestivum
Method in brief: as §1

barnyardgrass [12] = experiment: Test C postemergence; assay type: in vivo, Echinochloa crusgalli; settings: 10 days, 0 to 100 scale (0 no effect, 100 complete control)
Method in brief: as §1

blackgrass [13] = experiment: Test C postemergence; assay type: in vivo, Alopecurus myosuroides; settings: 10 days, 0 to 100 scale (0 no effect, 100 complete control)
Method in brief: as §1

corn [14] = experiment: Test C postemergence; assay type: in vivo, Zea mays; settings: 10 days, 0 to 100 scale (0 no effect, 100 complete control)
Method in brief: as §1

foxtail, giant [15] = experiment: Test C postemergence; assay type: in vivo, Setaria faberi; settings: 10 days, 0 to 100 scale (0 no effect, 100 complete control)
Method in brief: as §1

kochia [16] = experiment: Test C postemergence; assay type: in vivo, Bassia scoparia; settings: 10 days, 0 to 100 scale (0 no effect, 100 complete control)
Method in brief: as §1

oat, wild [17] = experiment: Test C postemergence; assay type: in vivo, Avena fatua; settings: 10 days, 0 to 100 scale (0 no effect, 100 complete control)
Method in brief: as §1

pigweed, palmer [18] = experiment: Test C postemergence; assay type: in vivo, Amaranthus palmeri; settings: 10 days, 0 to 100 scale (0 no effect, 100 complete control)
Method in brief: as §1

ragweed [19] = experiment: Test C postemergence; assay type: in vivo, Ambrosia artemisiifolia; settings: 10 days, 0 to 100 scale (0 no effect, 100 complete control)
Method in brief: as §1

ryegrass, Italian [20] = experiment: Test C postemergence; assay type: in vivo, Lolium multiflorum; settings: 10 days, 0 to 100 scale (0 no effect, 100 complete control)
Method in brief: as §1

soybean [21] = experiment: Test C postemergence; assay type: in vivo, Glycine max; settings: 10 days, 0 to 100 scale (0 no effect, 100 complete control)
Method in brief: as §1

wheat [22] = experiment: Test C postemergence; assay type: in vivo, Triticum aestivum; settings: 10 days, 0 to 100 scale (0 no effect, 100 complete control)
Method in brief: as §1

galium = experiment: Test C postemergence; assay type: in vivo, Galium aparine; settings: 10 days, 0 to 100 scale (0 no effect, 100 complete control)
Method in brief: as §1

horseweed = experiment: Test C postemergence; assay type: in vivo, Erigeron canadensis; settings: 10 days, 0 to 100 scale (0 no effect, 100 complete control)
Method in brief: as §1

barnyardgrass [23] = experiment: Test D flooded paddy test; assay type: in vivo, Echinochloa crus-galli; settings: 250 g ai/ha, applied to paddy water, visual rating after 13 to 14 days, scale 0 to 100 (0 no effect, 100 complete control)
Method in brief: (§2)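 Visual ratings from 0, meaning no effect, to 100, meaning complete control, were assigned against untreated controls 13 to 14 days after compounds were added to the floodwater of pots kept 3 cm deep, with plants at the 2-leaf stage.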

ducksalad = experiment: Test D flooded paddy test; assay type: in vivo, Heteranthera limosa; settings: 250 g ai/ha, applied to paddy water, visual rating after 13 to 14 days, scale 0 to 100 (0 no effect, 100 complete control)
Method in brief: as §2

rice = experiment: Test D flooded paddy test; assay type: in vivo, Oryza sativa; settings: 250 g ai/ha, applied to paddy water, visual rating after 13 to 14 days, scale 0 to 100 (0 no effect, 100 complete control)
Method in brief: as §2

sedge, umbrella = experiment: Test D flooded paddy test; assay type: in vivo, Cyperus difformis; settings: 250 g ai/ha, applied to paddy water, visual rating after 13 to 14 days, scale 0 to 100 (0 no effect, 100 complete control)
Method in brief: as §2

[24] = 500 g ai/ha, preemergence, 0 to 100 scale (0 no effect, 100 complete control)
[25] = Preemergence, 125 g ai/ha, 0 to 100 scale, 0 no effect, 100 complete control

CCc1ncn(-c2cccc(C(=O)N3CC(C(F)(F)F)Oc4c(C)cccc43)c2)n1 (stereo not shown) [Compound 344]
Barnyardgrass plant response rating (barnyardgrass [1]; [24]): 100 | Plant response rating, Barnyardgrass (barnyardgrass [1]; [25]): 80 | Blackgrass plant response rating (blackgrass [2]; [24]): 100 | Plant response rating, Blackgrass (blackgrass [2]; [25]): 90 | Corn plant response rating (corn [3]; [24]): 30 | Plant response rating, Corn (corn [3]; [25]): 20 | Foxtail, Giant plant response rating (foxtail, giant [4]; [24]): 100 | Plant response rating, Foxtail, Giant (foxtail, giant [4]; [25]): 100 | Kochia plant response rating (kochia [5]; [24]): 100 | Plant response rating, Kochia (kochia [5]; [25]): 60 | Oat, Wild plant response rating (oat, wild [6]; [24]): 90 | Plant response rating, Oat, Wild (oat, wild [6]; [25]): 0 | Pigweed, Palmer plant response rating (pigweed, palmer [7]; [24]): 100 | Plant response rating, Pigweed, Palmer (pigweed, palmer [7]; [25]): 90 | Ragweed plant response rating (ragweed [8]; [24]): 50 | Plant response rating, Ragweed (ragweed [8]; [25]): 0 | Ryegrass, Italian plant response rating (ryegrass, Italian [9]; [24]): 100 | Plant response rating, Ryegrass, Italian (ryegrass, Italian [9]; [25]): 90 | Soybean plant response rating (soybean [10]; [24]): 50 | Plant response rating, Soybean (soybean [10]; [25]): 0 | Wheat plant response rating (wheat [11]; [24]): 80 | Plant response rating, Wheat (wheat [11]; [25]): 40 | Plant response rating, Barnyardgrass (barnyardgrass [12]; 500 g ai/ha, postemergence): 70 | Plant response rating, Barnyardgrass (barnyardgrass [12]; Postemergence, 125 g ai/ha): 40 | Plant response rating, Blackgrass (blackgrass [13]; 500 g ai/ha, postemergence): 90 | Plant response rating, Blackgrass (blackgrass [13]; Postemergence, 125 g ai/ha): 80 | Plant response rating, Corn (corn [14]; 500 g ai/ha, postemergence): 90 | Plant response rating, Corn (corn [14]; Postemergence, 125 g ai/ha): 30 | Plant response rating, Foxtail, Giant (foxtail, giant [15]; 500 g ai/ha, postemergence): 90 | Plant response rating, Foxtail, Giant (foxtail, giant [15]; Postemergence, 125 g ai/ha): 70 | Plant response rating, Kochia (kochia [16]; 500 g ai/ha, postemergence): 80 | Plant response rating, Kochia (kochia [16]; Postemergence, 125 g ai/ha): 70 | Plant response rating, Oat, Wild (oat, wild [17]; 500 g ai/ha, postemergence): 90 | Plant response rating, Oat, Wild (oat, wild [17]; Postemergence, 125 g ai/ha): 60 | Plant response rating, Pigweed, Palmer (pigweed, palmer [18]; 500 g ai/ha, postemergence): 40 | Plant response rating, Pigweed, Palmer (pigweed, palmer [18]; Postemergence, 125 g ai/ha): 20 | Plant response rating, Ragweed (ragweed [19]; 500 g ai/ha, postemergence): 70 | Plant response rating, Ragweed (ragweed [19]; Postemergence, 125 g ai/ha): 70 | Plant response rating, Ryegrass, Italian (ryegrass, Italian [20]; 500 g ai/ha, postemergence): 100 | Plant response rating, Ryegrass, Italian (ryegrass, Italian [20]; Postemergence, 125 g ai/ha): 80 | Plant response rating, Soybean (soybean [21]; 500 g ai/ha, postemergence): 100 | Plant response rating, Soybean (soybean [21]; Postemergence, 125 g ai/ha): 80 | Plant response rating, Wheat (wheat [22]; 500 g ai/ha, postemergence): 80 | Plant response rating, Wheat (wheat [22]; Postemergence, 125 g ai/ha): 30 | Plant response rating, Galium (galium; 500 g ai/ha, postemergence): 100 | Plant response rating, Galium (galium; Postemergence, 125 g ai/ha): 90 | Plant response rating, Horseweed (horseweed; 500 g ai/ha, postemergence): 30 | Plant response rating, Horseweed (horseweed; Postemergence, 125 g ai/ha): 30 | Plant response rating, Barnyardgrass (Flood) (barnyardgrass [23]): 25 | Plant response rating, Ducksalad (Flood) (ducksalad): 30 | Plant response rating, Rice (Flood) (rice): 0 | Plant response rating, Sedge, Umbrella (Flood) (sedge, umbrella): 70
